We go through five compounds from patent US10065990B2, “Cyclic peptide compound, and preparation method, pharmaceutical composition and use thereof” (HANGZHOU GUANYU BIO-MEDICAL CO., LTD, priority 2013, dated 2018).

SMILES strings stand for the structures. Like-named read-outs stand apart in the source and are kept apart here.

The test system of assay [1] is U937 (human leukemia cells). Briefly: MTT cancer cell growth inhibition. Type of assay: cell-based. Conditions: Homo sapiens, U-937, 72 h, MTT, 72 hours incubation, read-out: GI50 U93. The essentials: (§1)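 Using a 72 h MTT format, triplicate wells of 1500 cells received compound concentrations from 10^−5 to 10^−10 M. Formazan was read at 570 nm after DMSO dissolution, and GI50 was derived from viability.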

Assay [2] relates to K562 (human leukemia cells). Briefly: MTT cancer cell growth inhibition. Type of assay: cell-based. To be noted: Homo sapiens, K562, 72 h, MTT, 72 hours incubation, K562 cells; read-out: GI50 K562. The essentials:
as §1

In assay [3] the test system is Hela (human cervical cancer cells). Briefly: MTT cancer cell growth inhibition. The assay is classed as cell-based. Conditions: Homo sapiens, HeLa, 72 h, MTT, 72 hours incubation, read-out: GI50 Hela. An outline of the steps:
as §1

In assay [4] the test system is A549 (human lung cancer cells). Briefly: MTT cancer cell growth inhibition. The assay is classed as cell-based. Conditions: Homo sapiens, A549, 72 h, MTT, 72 hours incubation, read-out: GI50 A54. An outline of the steps: as §1
The test system of assay [5] is Bel-7402 (human hepatoma cells). Briefly: MTT cancer cell growth inhibition. The assay is classed as cell-based. To be noted: Homo sapiens, Bel-7402, 72 h, MTT, 72 hours incubation, Bel-7402 cells; read-out: GI50 Bel-7402. The essentials: as §1
The test system of assay [6] is DU145 (human prostate cancer cells). Briefly: MTT cancer cell growth inhibition. Type of assay: cell-based. Conditions: Homo sapiens, DU-145, 72 h, MTT, 72 hours incubation, read-out: GI50 Du1. The essentials:
as §1

In assay [7] the test system is PANC-1 (Pac-1, human pancreatic cancer cells). The assay is described as follows: MTT cancer cell growth inhibition. The assay is classed as cell-based. To be noted: Homo sapiens, PANC-1, 72 h, MTT, 72 hours incubation, read-out: GI50 PAN. An outline of the steps: as §1
Assay [8] concerns MDA-MB-231 (breast cancer cells). Briefly: MTT cancer cell growth inhibition. The assay is classed as cell-based. To be noted: Homo sapiens, MDA-MB-231, 72 h, read-out: GI50 MDA-MB-231, MTT, 72 hours incubation, MDA-MB-231 cells. The essentials: as §1
Assay [9] relates to KBM-5 (human chronic myelogenous leukemia). Briefly: MTT cancer cell growth inhibition. Type of assay: cell-based. To be noted: Homo sapiens, KBM5, 72 h, MTT, 72 hours incubation, KBM-5 cells; read-out: GI50 KBM-5. The essentials: as §1
The test system of assay [10] is MOLT-4 (human acute lymphoblastic leukemia cells). Briefly: MTT cancer cell growth inhibition. The assay is classed as cell-based. Conditions: Homo sapiens, MOLT-4, 72 h, MTT, 72 hours incubation, read-out: GI50 Mol. An outline of the steps:
as §1

Assay [11] deals with BGC-823 (human gastric cancer cells). The assay is described as follows: MTT cancer cell growth inhibition. Type of assay: cell-based. Conditions: Homo sapiens, BGC-823, 72 h, MTT, 72 hours incubation, read-out: GI50 BG. The essentials:
as §1

Assay [12] relates to KBM5-T315I (human chronic myelogenous leukemia). Briefly: MTT cancer cell growth inhibition. Type of assay: cell-based. To be noted: Homo sapiens, 72 h, MTT, 72 hours incubation, KBM5-T315I cells; read-out: GI50 KBM5-T315I. The essentials: as §1
In assay [13] the test system is HCC827 (human non-small cell lung cancer cells). The assay is described as follows: MTT cancer cell growth inhibition. The assay is classed as cell-based. To be noted: Homo sapiens, HCC827, 72 h, MTT, 72 hours incubation, HCC827 cells; read-out: GI50 HCC827. An outline of the steps:
as §1

The test system of assay [14] is N-87 (human gastric cancer cells). The assay is described as follows: MTT cancer cell growth inhibition. To be noted: Homo sapiens, 72 h, MTT, 72 hours incubation, N-87 cells; read-out: GI50 N-87. The assay is classed as cell-based. An outline of the steps:
as §1

The subject of assay [15] is H1975 (non-small cell lung adenocarcinoma). The assay is described as follows: MTT cancer cell growth inhibition. To be noted: Homo sapiens, NCI-H1975, 72 h, MTT, 72 hours incubation, H1975 cells; read-out: GI50 H1975. The assay is classed as cell-based. An outline of the steps:
as §1

The test system of assay [16] is HT1080 (human fibrosarcoma cells). The assay is described as follows: MTT cancer cell growth inhibition. The assay is classed as cell-based. Conditions: Homo sapiens, HT-1080, 72 h, MTT, 72 hours incubation, read-out: GI50 HT1. An outline of the steps: as §1
Assay [17] deals with lncap (prostate cancer cells). Briefly: MTT cancer cell growth inhibition. Type of assay: cell-based. To be noted: Homo sapiens, LNCaP, 72 h, MTT, 72 hours incubation, read-out: GI50 lnca. The essentials: as §1
The subject of assay [18] is SGC-7901 (human gastric cancer cells). Briefly: MTT cancer cell growth inhibition. The assay is classed as cell-based. Conditions: Homo sapiens, SGC-7901, 72 h, MTT, 72 hours incubation, SGC-7901 cells; read-out: GI50 SGC-7901. An outline of the steps:
as §1

Assay [19] deals with MCF-7 (human breast cancer cells). Briefly: MTT cancer cell growth inhibition. Type of assay: cell-based. Conditions: Homo sapiens, MCF7, 72 h, 72 hours incubation, read-out: GI50 MCF. The essentials: as §1
The test system of assay [20] is Huh-7 (human hepatoma cells). Briefly: MTT cancer cell growth inhibition. Type of assay: cell-based. Conditions: Homo sapiens, Huh-7, 72 h, MTT, 72 hours incubation, Huh-7 cells; read-out: GI50 Huh-7. An outline of the steps: as §1
Assay [21] concerns the target T1, HDAC7 (Homo sapiens, UniProt Q8WUI4).
T1 sequence (Q8WUI4 1-952): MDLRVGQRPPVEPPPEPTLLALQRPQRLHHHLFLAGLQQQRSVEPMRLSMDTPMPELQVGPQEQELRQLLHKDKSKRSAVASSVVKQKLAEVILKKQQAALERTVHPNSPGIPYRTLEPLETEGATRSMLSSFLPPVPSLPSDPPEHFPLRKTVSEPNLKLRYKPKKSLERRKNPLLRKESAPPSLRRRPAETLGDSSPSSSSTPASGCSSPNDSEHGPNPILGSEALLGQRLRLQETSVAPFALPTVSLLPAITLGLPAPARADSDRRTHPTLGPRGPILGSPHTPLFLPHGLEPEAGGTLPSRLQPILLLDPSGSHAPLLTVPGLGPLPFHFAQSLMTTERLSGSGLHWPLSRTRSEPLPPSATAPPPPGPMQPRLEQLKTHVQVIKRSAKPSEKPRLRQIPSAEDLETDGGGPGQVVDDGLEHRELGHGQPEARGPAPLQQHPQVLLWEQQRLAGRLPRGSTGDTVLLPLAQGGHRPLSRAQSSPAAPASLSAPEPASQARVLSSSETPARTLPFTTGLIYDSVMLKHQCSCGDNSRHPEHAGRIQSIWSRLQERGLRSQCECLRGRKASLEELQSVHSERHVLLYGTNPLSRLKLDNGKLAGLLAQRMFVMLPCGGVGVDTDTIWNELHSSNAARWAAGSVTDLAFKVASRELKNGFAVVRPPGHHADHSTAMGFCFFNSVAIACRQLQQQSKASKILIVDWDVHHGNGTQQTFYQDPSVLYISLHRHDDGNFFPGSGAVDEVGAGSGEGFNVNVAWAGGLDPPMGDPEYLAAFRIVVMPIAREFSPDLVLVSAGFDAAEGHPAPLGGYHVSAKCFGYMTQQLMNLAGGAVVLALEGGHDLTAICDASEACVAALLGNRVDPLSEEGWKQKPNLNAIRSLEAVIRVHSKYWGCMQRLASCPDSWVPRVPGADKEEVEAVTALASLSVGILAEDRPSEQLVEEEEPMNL
Briefly: HDAC biochemical activity measurement (fluorescent substrate deacetylation).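 Note: fluorogenic deacetylation assay using acetyl-lysine substrate at 20 µM, enzyme and compound incubated 30 min at 37 °C, then developer added, fluorescence read at 360/460 nm.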 To be noted: HDAC7; 37° C. 30 minutes.

With `C/C=C1\NC(=O)c2nc(ccc2F)CNC(=O)C[C@@H](/C=C/CCS)OC(=O)[C@H](CCCCN)NC1=O` [Compound 116], the GI50 in assay [1] was found to be 20 nM; in [2], 16 nM; in assay [3], 40 nM; in assay [4], 60 nM; in [5], 28 nM; in assay [6] it was 20 nM. The concentration for 50% growth inhibition (GI50) was determined as 40 nM in assay [7]; 46 nM in [8]; 18 nM in assay [9]; 30 nM in assay [10]; 50 nM in assay [11]; 36 nM in assay [12]. Moreover, the GI50 in assay [13] turned out to be 21 nM; in assay [14] it was 43 nM; in assay [15] it was 93 nM; in assay [16], 50 nM; in [17], 30 nM; in assay [18], 21 nM. The GI50 in assay [19] came to 60 nM; in assay [20] it was 52 nM. Moreover, the “IC50 HDAC7” value in assay [21] is recorded as “no activity”.
Consider `C/C=C1\NC(=O)c2ccc(F)c(n2)CNC(=O)C[C@@H](/C=C/CCSC(C)=O)OC(=O)[C@H](CC)NC1=O` [Example 59], for which the 50% growth inhibitory concentration (GI50) in [1] came out at 30 nM; in assay [2], 38 nM; in assay [3], 60 nM; in assay [4] it was 50 nM; in [5], 82 nM; in assay [6], 30 nM. Moreover, the GI50 in assay [7] amounted to 80 nM; in assay [8] it was 37 nM; in [9] it was 61 nM; in assay [10] it was 30 nM; in [11] it was 50 nM; in [12], 74 nM. For the same compound, the GI50 came to 82 nM in [13]; 59 nM in assay [14]; 39 nM in assay [15]; 80 nM in assay [16]; 30 nM in assay [17]; 59 nM in assay [18]. Besides, the GI50 in assay [19] turned out to be 70 nM; in assay [20], 37 nM. The “IC50 HDAC7” value in assay [21] is listed as “no activity”.
As to `C/C=C1\NC(=O)c2ccc(F)c(n2)CNC(=O)C[C@@H](/C=C/CCS)OC(=O)[C@H](C(C)C)NC1=O` [Compound 108], the GI50 in [1] is 30 nM; in [2], 59 nM; in assay [3], 70 nM; in assay [4], 40 nM; in assay [5] it was 76 nM; in [6], 20 nM. For the same compound, the GI50 in assay [7] was 80 nM; in assay [8], 49 nM; in [9] it was 11 nM; in assay [10], 20 nM; in assay [11], 20 nM; in [12], 24 nM. Moreover, the GI50 in [13] came out at 93 nM; in assay [14] it was 34 nM; in [15], 33 nM; in assay [16], 80 nM; in [17], 20 nM; in assay [18], 36 nM. For the same compound, the GI50 in [19] is 30 nM; in assay [20] it was 43 nM. Also, the “IC50 HDAC7” value in [21] is “no activity”.
Regarding `C/C=C1\NC(=O)c2ccc(SC)c(n2)CNC(=O)C[C@@H](/C=C/CCSC(C)=O)OC(=O)[C@H](Cc2ccccc2)NC1=O` [Compound 188], the 50% growth inhibitory concentration (GI50) amounted to 40 nM in [1] (U937 cells); 36 nM in [2]; 50 nM in [3] (Hela cells); 20 nM in assay [4] (A549 cells); 42 nM in assay [5]; 30 nM in [6] (DU145 cells). In addition, the GI50 in [7] (PANC-1 cells) was determined as 50 nM; in assay [8], 23 nM; in assay [9], 18 nM; in assay [10] (MOLT-4 cells) it was 30 nM; in assay [11] (BGC-823 cells) it was 30 nM; in [12], 36 nM. Besides, the GI50 came out at 29 nM in assay [13]; 28 nM in [14]; 53 nM in assay [15]; 80 nM in [16] (HT1080 cells); 60 nM in assay [17] (lncap cells); 71 nM in assay [18]. Moreover, the concentration for 50% growth inhibition (GI50) turned out to be 30 nM in [19] (MCF-7 cells) and 79 nM in assay [20]. Further, the “IC50 HDAC7” value in [21] is “no activity”.
In the case of `C/C=C1\NC(=O)c2ccc(F)c(n2)CNC(=O)C[C@@H](/C=C/CCS)OC(=O)[C@H](CCCCN)NC1=O` [Compound 118], the concentration for 50% growth inhibition (GI50) stood at 30 nM in assay [1]; 29 nM in assay [2]; 70 nM in assay [3]; 30 nM in [4]; 27 nM in assay [5]; 40 nM in assay [6]. Further, the GI50 in assay [7] came to 80 nM; in assay [8], 31 nM; in [9] it was 41 nM; in [10], 20 nM; in assay [11], 60 nM; in [12] it was 57 nM. The concentration for 50% growth inhibition (GI50) in assay [13] came out at 53 nM; in [14], 61 nM; in assay [15], 35 nM; in assay [16], 80 nM; in assay [17], 20 nM; in assay [18], 39 nM. Besides, the GI50 in assay [19] is 60 nM; in assay [20], 41 nM. Besides, in assay [21], the “IC50 HDAC7” value is given as “no activity”.
